Among the data in PubChem BioAssay (NCI) are TGI and GI50 values, retold here.

Common to all, as to assay: inhibition of tumour cell growth, NCI panel, 48 h
In test [1] the test system is DU-145 prostate.
Test [2] deals with BT-549 breast.
Test [3] relates to SK-OV-3 ovarian.
In test [4] the test system is 786-0 renal.
The subject of test [5] is HS 578T breast.
In test [6] the test system is NCI-H23 lung.
In test [7] the test system is NCI/ADR-RES ovarian.
Test [8] concerns HOP-62 NSCLC.
Test [9] deals with MDA-MB-435.
Test [10] concerns MALME-3M melanoma.
Test [11] concerns MCF7 breast.
Test [12] has as its system MDA-N.
Test [13] relates to HCC-2998 colon.

Where “and” joins values, the source holds several entries; their conditions need not be identical. Equal values may be shown once.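 Exposure lasted 48 hours, with cells grown in 96-well plates and compounds tested at five concentrations. GI50 marks 50% less growth. TGI denotes the concentration required for complete inhibition of growth.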

For the compound `CC(C)=CCC/C(C)=C/CC/C(C)=C/[C@@H]1[C@@H](CO)[C@]1(C)CC/C=C(\C)CCC=C(C)C`, the TGI in [1] is > 100 µM; in test [2], > 100 µM; in [3] it was > 100 µM; in test [4], 42.9 µM; in test [5], > 100 µM; in [6] it was > 100 µM. Besides, the TGI is 55 µM in [7], > 100 µM in test [8], > 100 µM in [9] and > 100 µM in [10].

For `Cc1cc(N2CCOCC2)nc(N(CCCNc2ccnc3cc(Cl)ccc23)Cc2ccc3c(c2)OCO3)n1`, the GI50 was 1.43 µM in [1], 2.29 µM in test [3] and 1.97 µM in [5]. The results for the TGI in [1], in test [3] and in test [5] were 2.93 µM, 4.54 µM and 4.61 µM, respectively.

Take `CC(Br)C(=O)c1ccc2cc(Br)c3ccccc3c2c1` (stereo not drawn): the TGI in test [11] was determined as 30.1 µM; in test [1] it was 31.3 µM; in test [2], 28.7 µM; in [3], 30.8 µM; in [4] it was 11.7 µM; in [5] it was 62.9 µM. Also, the TGI was found to be 29.7 µM in test [6]; 35 µM in test [7]; 27 µM in test [12]; 32.4 µM in test [8]; 29.9 µM in test [9]; 28.8 µM in [10]. The same compound came in with a TGI in test [13] of 29.6 µM.

Consider `COC1OC(C(=O)CP(=O)(OC)OC)C(OCc2ccccc2)C(OCc2ccccc2)C1OCc1ccccc1` (stereo not drawn), for which the TGI was 30.5 µM in [11]; 31.3 µM and 33.5 µM in test [1]; 32 µM and 33.8 µM in test [2]; 32.7 µM and 32.6 µM in test [3]; 31.3 µM and 31.4 µM in test [4]; 63.4 µM and 74.8 µM in test [5]. The TGI in [6] was 30.3 µM and 32.9 µM; in test [7] it was 42.6 µM and 46 µM; in [12], 29.8 µM and 30.8 µM; in test [8], 32 µM and 32.5 µM; in [9], 31.8 µM and 35.9 µM; in test [10], 32.4 µM and 34.5 µM. Also, the TGI in test [13] was 31.5 µM and 29.7 µM.

For `O=C(COC(c1ccc(F)cc1)c1ccc(F)cc1)N1CCN(CCCc2ccccc2)CC1`, the TGI stood at 12.6 µM in [11]; 14.5 µM in [1]; 13.7 µM in test [2]; 21.5 µM in test [3]; 14.1 µM in [4]; 59.6 µM in [5]. Moreover, the TGI in test [6] worked out at 7.91 µM; in [7], 12.8 µM; in test [12], 13.4 µM; in [8], 19.4 µM; in test [9], 13 µM; in test [10], 17.4 µM. Moreover, the TGI in test [13] turned out to be 13 µM.

As for `NC(CCc1ccccc1)(C(=O)O)c1ccccc1` (stereo not drawn), the TGI in [1], in test [2], in test [4], in [5], in [6] and in test [7] was > 100 µM throughout. For the same compound, the TGI in test [12], in [8], in test [9], in test [10] and in test [13] was > 100 µM each time.

Consider `CCOC(=O)C(C)OC(=O)c1ccc(C)cc1` (stereo not drawn), for which the TGI in [3], in [6], in test [10] and in test [13] was > 100 µM in each case.

Take `Fc1cc(C2=C[C@H](c3ccc4c(c3)OCO4)NC(=S)N2)c(Cl)cc1Cl`: the TGI in [11], in test [1], in test [2], in test [3], in [4] and in [5] was > 100 µM in each case. For the same compound, the TGI was > 100 µM in test [6]; > 100 µM in [7]; > 100 µM in [12]; > 100 µM in [8]; > 100 µM in test [9]; 95.4 µM in test [10]. The TGI in test [13] was found to be 75.4 µM.

For `CC(C)(C)c1ccc(O)c(Br)c1`, the TGI in test [11], in test [1], in test [2], in [3], in test [4] and in test [5] was > 100 µM each time. The TGI in [6], in [7], in test [12], in [8], in test [9] and in test [10] was > 100 µM throughout. Besides, in test [13], the TGI is > 100 µM.

On to `COc1cccc(/C=N/[N-]C(N)=O)c1[O-].[Cu+2].[OH3+].c1cnc2c(c1)ccc1cccnc12`, for which the TGI came to 25.2 µM in [3]; 20.2 µM in test [4]; 15.8 µM in test [6]; 36 µM in test [8]; 33.3 µM in [10]; 49.1 µM in test [13].

Turning to `Clc1ccc(NCc2nnc(COc3ccc(OCc4nnc(CNc5ccc(Cl)cc5)o4)c(Cl)c3)o2)cc1`, the TGI in test [11] is 88.3 µM; in [1] it was > 100 µM; in test [2] it was > 100 µM; in [4], > 100 µM; in [5], > 100 µM; in test [6], > 100 µM. The TGI in [7] is 68.5 µM; in [12], > 100 µM; in test [8], > 100 µM; in test [9], > 100 µM; in test [10], > 100 µM; in test [13], > 100 µM.

For the compound `COc1cc(S(=O)(=O)N/N=C/C=C/c2ccccc2)c(OC)cc1NC(C)=O`, the TGI in test [11], in test [1], in [2], in test [3], in test [4] and in test [5] was > 100 µM throughout. In addition, the TGI in [6], in test [7], in test [12], in test [8], in test [9] and in [10] was > 100 µM in each case.

Take `COC(=O)c1c(O)ccc2c1c1c(n2Cc2ccccn2)C(=O)c2ccccc2C1`: the TGI in test [11], in test [1], in test [2], in [3], in test [4] and in [5] was > 100 µM throughout. Moreover, the TGI in test [6], in [7], in test [12], in [8], in [9] and in test [10] was > 100 µM each time.

For the compound `Cc1cc(O)c2c(c1O)C(=O)c1c(O)ccc(O)c1C2=O`, the TGI in test [11], in test [1], in test [2], in [3], in test [4] and in test [5] was > 100 µM throughout. In addition, the TGI in [6], in test [7], in [12], in test [8], in [9] and in [10] was > 100 µM in each case. Moreover, in [13], the TGI is > 100 µM.

As to `O=CC(O)C(O)C(O)COc1cc(CO)cc2c1C(=O)c1ccccc1C2=O` (stereo not drawn), the TGI in test [3], in [4], in [6], in test [8], in test [10] and in test [13] was > 100 µM each time.

Turning to `C/C(=C\CNc1ncnc2nc(Cl)[nH]c12)CO`, the TGI in [11], in [1], in test [3], in [4], in test [5] and in [6] was > 100 µM throughout. In addition, the TGI in test [7], in test [12], in [8], in [9], in [10] and in test [13] was > 100 µM throughout.

`CN(C)C/C=C(/c1ccc(Br)cc1)c1cccnc1`: the TGI in [11], in [1], in test [2], in [3], in [4] and in test [5] was > 100 µM throughout. The TGI is > 100 µM in [6]; > 100 µM in test [7]; > 100 µM in test [12]; > 100 µM in test [8]; > 100 µM in [9]; 44.1 µM in test [10]. The compound also gave a TGI in test [13] of 29.8 µM.

In the case of `O=c1oc2c(ccc3occc32)c(N2CCCCC2)c1-c1ccccc1`, the TGI in test [11], in test [3], in [6], in test [7], in test [8] and in [10] was > 100 µM in each case. The TGI in test [13] is > 100 µM. The GI50 in [3] is > 100 µM.

As to `CCN(CC)/[N+]([O-])=N/OC`, the TGI in test [3], in test [6], in test [8] and in [13] was > 100 µM throughout.

`CCOC(=O)C(=CNC(Cc1c[nH]c2ccccc12)C(=O)OC)C(=O)OCC` (stereo not drawn): the TGI in test [3], in [6] and in [10] was > 100 µM throughout.

As for `CC(C)(C)OC(=O)N1C(C2=COc3ccccc3O2)=COc2cccnc21`, the TGI in test [11] is 3.08 µM; in test [1], 2.76 µM; in test [2] it was 5.42 µM; in [3], 3.99 µM; in test [4], 3.66 µM; in [5], 19.1 µM. Also, the TGI in [6] was 3.25 µM; in test [7], 4.7 µM; in [12] it was 4.68 µM; in [8] it was 3.5 µM; in test [9], 3.67 µM; in test [10], 2.76 µM. Moreover, in test [13], the TGI was found to be 3.16 µM.

As to `NCCCCN`, the TGI in [11], in [1], in [2], in test [3], in test [4] and in test [6] was > 100 µM each time. The TGI in test [7] was > 100 µM; in test [8], > 100 µM; in test [9], 31.4 µM; in test [10] it was > 100 µM; in test [13], > 100 µM.

`Cn1c2c(c3c(=O)[nH]ncc31)CCc1ccccc1-2`: the TGI was 79 µM in test [11]; > 100 µM in test [1]; 78.2 µM in test [2]; > 100 µM in test [3]; 73.4 µM in test [4]; > 100 µM in test [5]. Moreover, the TGI in test [6] was 71.4 µM; in test [7], 89 µM; in [12], 91 µM; in [8], > 100 µM; in test [9], > 100 µM; in test [10] it was 88.5 µM.

As to `COC(=N)C(C)C`, the TGI in test [3], in [6], in [8], in test [10] and in test [13] was > 100 µM throughout.

Take `NC(N)=NS(=O)(=O)c1ccc(Nc2c3ccccc3nc3c(C(=O)N4CCN(CCO)CC4)ccc(Cl)c23)cc1`: the TGI in [3], in [6], in test [8], in [10] and in test [13] was > 100 µM throughout.

Regarding `C=C1CCCC(C)(C)[C@@H]1CC/C(C)=C/Cn1c2cccc(=O)c-2nc2ccccc21`, the GI50 in test [11] was 4.92 µM; in test [6] it was 5.39 µM; in test [7], 4.23 µM; in test [10], 5.76 µM. The TGI is > 100 µM and 10.4 µM in [11]; 10.7 µM in [3]; 9.37 µM in [8]; > 100 µM in test [10]; 4.53 µM in test [13].

`O=C(N/N=C\c1ccc([N+](=O)[O-])cc1)Nc1ccccc1`: the TGI in test [11], in test [1], in [2], in [3], in test [5] and in test [6] was > 100 µM in each case. Besides, the TGI in test [7], in test [12], in test [8], in [9] and in test [10] was > 100 µM in each case.
